According to patent US5672707A (priority 1991, dated 1997):
Like-named read-outs stand apart in the source and are kept apart here.

Key:
in vivo = conditions: for LD50: in vivo, ip
Experimental: (§1) Psychoneurotropic activity of the declared compounds and their influence on learning and memory were observed using unbred male (18-20 g) mice and 180-200 g) rats, held at standard conditions (room temperature 21°-22° C., 12-hours lighting schedule, food and water ad libitum).
Acute toxicity was studied by the method of Kerber with intra peritoneal drug injection.

rats = assay: Passive avoidance test in normal rats, 50% acquisition; type: in vivo; conditions: for Increase of the number of correct trails (% to control). Passive avoidance test (rats) / change in vivo at 0.1 mg/kg: 0.1 mg/kg i.p. 20 min before training, piracetam 250 mg/kg 60 min before training, rats; for change in vivo at 0.1 mg/kg: Rattus norvegicus, ip, 20 min, read-out: Increase of the number of correct trails (% to control). Passive avoidance test (rats)
Experimental: as §1
The influence of drugs on reflex conditioning in rats was studied by the passive avoidance test in conditions of 50% acquisition. The effect of the compound was estimated by the increase of the relative number of learned animals with respect to that of control group. […] The other reference drug--noothropic agent piracetam--was given in the dose 250 mg/kg 60 min before training. Amnestic syndrome was stimulated by 20 days application of Sc at the daily dose of 1 mg/kg intraperitoneally. […] The passive avoidance test was performed within 24 hours after the last application of test preparations.

mice [1] = assay: Psychotropic activity test: motor activity; type: in vivo; conditions: intraperitoneally, dose 1/20 of LD
mice [2] = assay: Psychotropic activity test: arecoline induced hyperkynesis; type: in vivo; conditions: intraperitoneally, dose 1/20 of LD
[3] = biological target: T1, Acetylcholinesterase, enzyme from human erythrocytes (Homo sapiens, UniProt P22303); assay: Acetylcholinesterase inhibition, spectrophotometric technique of Ellman; type: biochemical; conditions: Acetylcholinesterase inhibition IC50 (M), enzyme from human erythrocytes; Table 5
T1 construct: on the enzyme from human erythrocytes; from tissue; host or cells: human erythrocytes
Experimental: Acetylcholinesterase inhibition under the action of preparations was assessed by the spectrophotometric technique of Ellman on the enzyme from human erythrocytes.

rat adipocytes = assay: Lipid composition of adipocytes after incubation with compounds; type: cell-based; conditions: cells; Table 11
Experimental: Lipid regulative activity of the declared compounds--derivatives of 9-amino acridine--were evaluated in vitro[…] using rat adipocytes. Adipocytes were separated from adipose tissue of testis appendages of adult male rats. Lipid composition analysis was performed by the method of thin-layer chromatography.
Quantitative analysis of phospholipids (PL), mono- and diacylglycerides (MDG), triacylglycerides (TG), free fatty acids (FFA), free cholesterol (FCL), and methyl esters of fatty acids (MEFA) was performed by the method of spectrophotometry.

[4] = intraperitoneal injection, Table 5
[5] = intraperitoneal injection, Table 5, read-out: LD50 (mg/kg) by Kerber

T1 sequence (P22303-2 with tags, fused parts or gaps limits assumed): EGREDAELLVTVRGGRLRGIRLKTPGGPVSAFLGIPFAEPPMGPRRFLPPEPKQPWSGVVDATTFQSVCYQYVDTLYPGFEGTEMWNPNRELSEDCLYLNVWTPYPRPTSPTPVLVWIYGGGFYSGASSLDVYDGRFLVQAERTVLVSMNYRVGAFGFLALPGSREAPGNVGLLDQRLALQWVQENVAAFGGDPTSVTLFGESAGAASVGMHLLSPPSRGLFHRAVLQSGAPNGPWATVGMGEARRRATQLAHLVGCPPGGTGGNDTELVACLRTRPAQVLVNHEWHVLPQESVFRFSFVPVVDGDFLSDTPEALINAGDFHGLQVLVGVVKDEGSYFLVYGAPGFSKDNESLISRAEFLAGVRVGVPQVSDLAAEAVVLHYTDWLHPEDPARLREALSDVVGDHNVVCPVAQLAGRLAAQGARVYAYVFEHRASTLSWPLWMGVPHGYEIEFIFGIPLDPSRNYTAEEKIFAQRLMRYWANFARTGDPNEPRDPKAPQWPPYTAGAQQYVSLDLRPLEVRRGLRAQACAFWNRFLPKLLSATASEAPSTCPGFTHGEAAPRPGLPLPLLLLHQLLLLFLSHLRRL

SMILES	LD50 (mg/kg) by Kerber (in vivo; [4]) [mg/kg]	Performance of normal rats in passive avoidance test (rats)	Increase of the number of correct trails (% to control). Passive avoidance test (rats) (rats)	Motor activity increment (% to control) (mice [1])	Increase of duration of arecoline induced hyperkynesis (% to control) (mice [2])	IC50 [3] [M]	LD50 (in vivo; [5]) [mg/kg]	change in vivo at 0.1 mg/kg (rats) [%]	LD50 (in vivo; LD50 (mg/kg) by Kerber) [mg/kg]	FFA/TG in adipocytes (rat adipocytes)	PL/CL in adipocytes (rat adipocytes)	PL/TG in adipocytes (rat adipocytes)
CCCCNc1c2c(nc3ccccc13)CC(C)(C)CC2=O [Vu]	210.0 ± 5.8	statistically significantly improved performance of normal rats	30 % to control	20 % to control	0 % to control							
Cc1cc(C)c2nc3c(c(N)c2c1)C(=O)CC(C)(C)C3 [IVh]				0 % to control	20 % to control	3e-05	> 500	0				
CCCCNc1c2c(nc3ccccc13)CC(C)(C)CC2=O [Vx]	121.7 ± 15.5		25 % to control									
CCCNc1c2c(nc3ccccc13)CC(C)(C)CC2=O [Vl]				74 % to control	30 % to control	3e-06	283 ± 35.7	0				
CNc1c2c(nc3ccccc13)CC(C)(C)CC2=O [Vh]				40 % to control	20 % to control	4e-07	65.8 ± 4.8	0				
CC1(C)Cc2nc3ccccc3c(NCc3ccc(Cl)cc3)c2C(O)C1 (stereo not drawn) [VIg]				40 % to control	36 % to control	3e-06	80 ± 2.7	0				
CC1(C)C=Cc2c(nc3ccccc3c2NCc2ccccc2)C1 [VIIr]	69.5 ± 5.6	statistically significantly improved performance of normal rats	45 % to control	0 % to control	0 % to control							
Cc1ccc2nc3c(c(N)c2c1)C(=O)CC(C)(C)C3 [IVj]				0 % to control	30 % to control	3e-05	63.6 ± 8.7	0				
CC1(C)C=Cc2c(nc3ccccc3c2NCc2ccccc2)C1 [VIIo]	62.5 ± 7.7	statistically significantly improved performance of normal rats	40 % to control	16 % to control	0 % to control							
CC1(C)CC(=O)c2c(nc3ccc(Br)cc3c2N)C1 [IVd]				15 % to control	20 % to control	5e-05	> 500	0				
CC1(C)C=Cc2c(nc3ccccc3c2NCc2ccccc2)C1 [VIIm]	112.5 ± 10.9		25 % to control	15 % to control	15 % to control							
CC(C)Nc1c2c(nc3ccccc13)CC(C)(C)CC2=O [Vn]				76 % to control	0 % to control	6e-06	70.2 ± 7.3	0				
CC1(C)Cc2nc3ccccc3c(NCc3ccccc3)c2C(O)C1 (stereo not drawn) [VIe, 9-benzylamino-3,3-dimethyl-1,2,3,4-tetrahydroacridine-1-ol]				64 % to control	15 % to control	1.3e-06	50 ± 8.6	0				
CC1(C)C=Cc2c(nc3ccccc3c2NCc2ccccc2)C1 [VIIp]		statistically significantly improved performance of normal rats	45 % to control	33 % to control	21 % to control				75 ± 3.8			
CC1(C)C=Cc2c(nc3ccccc3c2NCc2ccccc2)C1 [VIIq]	73.3 ± 4.4	statistically significantly improved performance of normal rats	45 % to control	20 % to control	30 % to control							
CCCCNc1c2c(nc3ccccc13)CC(C)(C)C=C2 [VIIc]				20 % to control	15 % to control	6e-07	33.3 ± 4.4	25				
CC1(C)C=Cc2c(nc3ccccc3c2NCc2ccccc2)C1 [VIIf]	125.0 ± 15.5		0 % to control	0 % to control	0 % to control							
CC1(C)C=Cc2c(nc3ccccc3c2NCc2ccccc2)C1 [VIIg]	200.0 ± 21.9		0 % to control	23 % to control	0 % to control							
CCCCNc1c2c(nc3ccccc13)CC(C)(C)CC2=O [Vz]	200.0 ± 21.9		20 % to control	0 % to control	0 % to control							
CC1(C)C=Cc2c(nc3ccccc3c2NCc2ccccc2)C1 [VIIh]	116.7 ± 10.9		20 % to control	13 % to control	28 % to control							
CCCCNc1c2c(nc3ccccc13)CC(C)(C)CC2=O [Vw]	125.0 ± 11.8		10 % to control	10 % to control	10 % to control							
CC1(C)C=Cc2c(nc3ccccc3c2NCc2ccccc2)C1 [VIIn]	125.0 ± 10.9		40 % to control	11 % to control	46 % to control							
CCCCNc1c2c(nc3ccccc13)CC(C)(C)CC2=O [Vt]	210.0 ± 9.8		0 % to control	0 % to control	0 % to control							
CCCCNc1c2c(nc3ccccc13)CC(C)(C)CC2=O [Vy]	210.0 ± 14.8		0 % to control	0 % to control	0 % to control							
CCCCNc1c2c(nc3ccccc13)CC(C)(C)CC2=O [Vs]	165.8 ± 14.8		15 % to control	0 % to control	0 % to control							
CCCCNc1c2c(nc3ccccc13)CC(C)(C)CC2=O [Vv]	433.3 ± 7.8		25 % to control	26 % to control	15 % to control							
CC1(C)C=Cc2c(nc3ccccc3c2NCc2ccccc2)C1 [VIIu]	83.8 ± 5.6		0 % to control	15 % to control	12 % to control							
CC(C)(Sc1cc(C(C)(C)C)c(O)c(C(C)(C)C)c1)Sc1cc(C(C)(C)C)c(O)c(C(C)(C)C)c1 [probucol, reference compound]										1.10	0.84	0.69
